Counter-ions that a name gives are not always drawn.
Structure (SMILES)	melting point
Cc1c(C(=O)NN2CCCCC2)nc(-c2ccc(Cl)cc2Cl)n1-c1ccc(OS(=O)(=O)c2cccnc2)cc1 (as salt: hydrochloride) [Example 4, Pyridine-3-sulfonic acid 4-[2-(2,4-dichloro-phenyl)-5-methyl-4-(piperidin-1-ylcarbamoyl)-imidazol-1-yl]-phenyl ester]	205 to 209 °C
Cc1c(C(=O)NN2CCCCC2)nc(-c2ccc(Cl)cc2Cl)n1-c1ccc(OS(=O)(=O)c2ccc(Cl)s2)cc1 (as salt: hydrochloride) [Example 5, 5-Chloro-thiophene-2-sulfonic acid 4-[2-(2,4-dichloro-phenyl)-5-methyl-4-(piperidin-1-ylcarbamoyl)-imidazol-1-yl]-phenyl ester]	112 to 118 °C
CCS(=O)(=O)Oc1ccc(-n2c(-c3ccc(Cl)cc3Cl)nc(C(=O)NN3CCCCC3)c2C)cc1 (as salt: hydrochloride) [Example 2, Ethanesulfonic acid 4-[2-(2,4-dichloro-phenyl)-5-methyl-4-(piperidin-1-ylcarbamoyl)-imidazol-1-yl]-phenyl ester]	94 to 101 °C
Cc1c(C(=O)NN2CCCCC2)nc(-c2ccc(Cl)cc2Cl)n1-c1ccc(OCc2ccccc2)cc1 (as salt: hydrochloride) [Example 1, 1-(4-Benzyloxy-phenyl)-2-(2,4-dichloro-phenyl)-5-methyl-1H-imidazole-4-carboxylic acid piperidin-1-ylamide]	195 to 198 °C
Cc1c(C(=O)NN2CCCCC2)nc(-c2ccc(Cl)cc2Cl)n1-c1ccc(OS(=O)(=O)CCCC(F)(F)F)cc1 (as salt: hydrochloride) [Example 3, 4,4,4-Trifluoro-butane-1-sulfonic acid 4-[2-(2,4-dichloro-phenyl)-5-methyl-4-(piperidin-1-ylcarbamoyl)-imidazol-1-yl]-phenyl ester]	113 to 118 °C

More lines, now with the values ahead:

melting point	Structure (SMILES)
126 to 133 °C	CCCS(=O)(=O)Oc1ccc(-n2c(-c3ccc(Cl)cc3Cl)nc(C(=O)NN3CCCCC3)c2C)cc1 (as salt: hydrochloride) [Example 9, Propane-1-sulfonic acid 4-[2-(2,4-dichloro-phenyl)-5-methyl-4-(piperidin-1-ylcarbamoyl)-imidazol-1-yl]-phenyl ester]
152 to 156 °C	Cc1c(C(=O)NN2CCCCC2)nc(-c2ccc(Cl)cc2Cl)n1-c1ccc(OS(=O)(=O)CCC(C)(C)C)cc1 (as salt: hydrochloride) [Example 6, 3,3-Dimethyl-butane-1-sulfonic acid 4-[2-(2,4-dichloro-phenyl)-5-methyl-4-(piperidin-1-ylcarbamoyl)-imidazol-1-yl]-phenyl ester]
107 to 112 °C	Cc1c(C(=O)NN2CCCCC2)nc(-c2ccc(Cl)cc2Cl)n1-c1ccc(OS(=O)(=O)c2cccs2)cc1 (as salt: hydrochloride) [Example 7, Thiophene-2-sulfonic acid 4-[2-(2,4-dichloro-phenyl)-5-methyl-4-(piperidin-1-ylcarbamoyl)-imidazol-1-yl]phenyl ester]
183 to 186 °C	Cc1c(C(=O)NN2CCCCC2)nc(-c2ccc(Cl)cc2Cl)n1-c1ccc(OS(=O)(=O)CCC(F)(F)F)cc1 (as salt: hydrochloride) [Example 8, 3,3,3-Trifluoro-propane-1-sulfonic acid 4-[2-(2,4-dichloro-phenyl)-5-methyl-4-(piperidin-1-ylcarbamoyl)-imidazol-1-yl]-phenyl ester]
